From patent US20190270733A1, “Quinoline and Isoquinoline Based HDAC Inhibitors and Methods of Use Thereof” (Reaction Biology Corp., priority 2018, published 2019) come the findings set out here.

“And” between values parts separate entries of the source, which are not always exact repeats. Equal values may be shown once. Read-outs that look alike come from different tables or passages of the source.

One data set has as its target T1, Human HDAC1 (Homo sapiens, UniProt Q13547).
T1 construct: full-length with a C-terminal His-tag and a C-terminal FLAG-tag; His-tag (C); FLAG-tag (C); made in house
Put plainly: Biochemical HDAC assay, HDAC1. The following applies: incubation time 120 min. The protocol:
Human HDAC1 (GenBank Accession No. NM_004964), full-length with a C-terminal His-tag and a C-terminal FLAG-tag, MW=56 kDa, was expressed in a baculovirus expression system.
(§1) • I. Compound handling: Testing compounds were dissolved in 100% DMSO to a specific concentration. The serial dilution was conducted by epMotion 5070 in DMSO. • II. HDAC reaction buffer: 50 mM Tris-HCl, pH8.0, 137 mM NaCl, 2.7 mM KCl, and 1 mM MgCl2, Added fresh: 1 mg/ml BSA, 1% DMSO. • III. Substrate: Fluorogenic HDAC General Substrate for HDAC1, 2, 3, 6, 10, 11 ans Sirt1, 2 and 3: Arg-His-Lys-Lys(Ac); HDAC8 only substrate: Arg-His-Lys(Ac)-Lys(Ac); Class2A Substrate (HDAC4, 5, 7 and 9): Acetyl-Lys(trifluoroacetyl)-AMC; Sirt5 substrate: Ac-Lys(succinyl)-AMC. • IV. General Reaction Procedure: (Standard IC50 determination) • a. Delivered 2× enzyme in wells of reaction plate except No Enzyme (No En) control wells. Add buffer in No En wells. • b. Delivered compounds in 100% DMSO into the enzyme mixture by Acoustic technology (Echo550; nanoliter range). Spin down and pre-incubation. • c. Delivered 2× Substrate Mixture (Fluorogenic HDAC Substrate and co-factor (500 μM of Nicotinamide adenine dinucleotide (NAD^+) in all Sirt assay) in all reaction wells to initiate the reaction. Spin and shake. • d. Incubated for 1-2 hr. at 30° C. with seal. • e. Added Developer with Trichostatin A (or TMP269 or NAD^+) to stop the reaction and to generate fluorescent color. • f. Fluorescence was read (excitatory, 360; emission, 460) using the EnVision Multilabel Plate Reader (Perkin Elmer) • g. Endpoint reading was taken for analysis after the development reaches plateau. • V. Data Analysis: The percentages of enzyme activity (relative to DMSO controls) and IC50 values were calculated using the GraphPad Prism 4 program based on a sigmoidal dose-response equation.
(§2) Compounds with indicated doses was tested in the biochemical assays of HDAC1, HDAC2, HDAC3, HDAC4, HDAC5, HDAC6, HDAC7, HDAC8, HDAC9, HDAC10, or HDAC11 enzyme. The incubation time in HDAC1/2 assays are 120 min, and that for other HDACs are 10 min. The curve fit and IC50 values were calculated using the GraphPad Prism 4 program based on a sigmoidal dose-response equation.

For a further data set, the target named is T2, Recombinant human HDAC6 (Homo sapiens, UniProt Q9UBN7).
T2 construct: full-length, MW=180 kDa; GST tag (N); made in house; host or cells: Sf9 insect cells (baculovirus)
T2 sequence (Q9UBN7 1-1215): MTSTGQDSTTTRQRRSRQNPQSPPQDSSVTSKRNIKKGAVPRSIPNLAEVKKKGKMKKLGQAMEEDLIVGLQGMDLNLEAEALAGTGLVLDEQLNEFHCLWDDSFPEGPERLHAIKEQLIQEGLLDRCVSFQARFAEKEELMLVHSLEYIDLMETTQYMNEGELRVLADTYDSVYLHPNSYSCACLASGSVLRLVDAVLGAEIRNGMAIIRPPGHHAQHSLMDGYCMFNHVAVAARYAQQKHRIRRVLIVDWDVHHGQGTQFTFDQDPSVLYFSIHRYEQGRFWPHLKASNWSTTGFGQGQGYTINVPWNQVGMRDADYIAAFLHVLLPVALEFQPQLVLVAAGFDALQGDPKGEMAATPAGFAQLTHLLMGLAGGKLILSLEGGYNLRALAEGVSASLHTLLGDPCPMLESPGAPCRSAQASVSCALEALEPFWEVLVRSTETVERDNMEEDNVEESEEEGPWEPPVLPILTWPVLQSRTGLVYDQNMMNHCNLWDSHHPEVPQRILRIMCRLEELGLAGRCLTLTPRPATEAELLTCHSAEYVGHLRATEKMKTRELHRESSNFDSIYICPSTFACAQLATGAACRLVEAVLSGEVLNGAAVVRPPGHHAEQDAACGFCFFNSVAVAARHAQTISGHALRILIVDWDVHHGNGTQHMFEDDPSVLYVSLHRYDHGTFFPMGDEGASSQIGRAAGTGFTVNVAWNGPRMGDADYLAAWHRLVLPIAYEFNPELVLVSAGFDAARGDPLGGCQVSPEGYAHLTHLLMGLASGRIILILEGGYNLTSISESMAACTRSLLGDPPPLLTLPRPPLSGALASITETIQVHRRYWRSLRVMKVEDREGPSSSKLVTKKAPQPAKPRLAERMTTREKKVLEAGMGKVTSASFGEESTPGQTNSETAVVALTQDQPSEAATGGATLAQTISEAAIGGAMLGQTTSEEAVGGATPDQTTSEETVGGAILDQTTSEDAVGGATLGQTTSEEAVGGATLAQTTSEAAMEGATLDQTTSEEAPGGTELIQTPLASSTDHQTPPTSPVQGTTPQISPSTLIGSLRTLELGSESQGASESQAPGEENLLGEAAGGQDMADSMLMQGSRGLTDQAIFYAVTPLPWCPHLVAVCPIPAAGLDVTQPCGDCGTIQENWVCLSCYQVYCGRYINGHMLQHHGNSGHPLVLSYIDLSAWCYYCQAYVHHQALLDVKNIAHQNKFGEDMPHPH
Put plainly: Biochemical HDAC assay, HDAC6. The following applies: incubation time 10 min. The method, then:
Recombinant human HDAC6 (GenBank Accession No. BC069243), full-length, MW=180 kDa, was expressed by baculovirus in Sf9 insect cells using an N-terminal GST tag.
as §1, §2

The nature of data set [1]: Brain exposure experiment in mice. Type of data set: in vivo. The following applies: 1 hour after exposure. The method, then: Brain exposure experiments were performed wherein mice were exposed to compound Example 5 at an IV dosage of 1 mg/kg (Table 4).
The mark [2] stands for this setting: IV 1 mg/kg, individual mice, 1 mg/kg.

T1 sequence (Q13547 whole entry): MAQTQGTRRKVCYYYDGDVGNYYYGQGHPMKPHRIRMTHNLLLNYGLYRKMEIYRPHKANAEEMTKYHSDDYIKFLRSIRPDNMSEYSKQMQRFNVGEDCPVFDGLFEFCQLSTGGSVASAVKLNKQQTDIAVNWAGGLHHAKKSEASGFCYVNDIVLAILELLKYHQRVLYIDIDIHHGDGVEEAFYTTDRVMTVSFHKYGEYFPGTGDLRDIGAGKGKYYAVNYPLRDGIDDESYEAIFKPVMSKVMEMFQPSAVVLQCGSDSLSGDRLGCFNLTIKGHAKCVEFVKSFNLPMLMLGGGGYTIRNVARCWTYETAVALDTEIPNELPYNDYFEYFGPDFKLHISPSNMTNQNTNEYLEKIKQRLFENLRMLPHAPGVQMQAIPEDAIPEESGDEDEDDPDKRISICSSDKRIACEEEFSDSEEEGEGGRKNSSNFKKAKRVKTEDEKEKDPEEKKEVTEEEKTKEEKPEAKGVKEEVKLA

On to `Nc1ccc(-c2cccs2)cc1NC(=O)c1ccc2c(c1)CCC(=O)N2` [Example 5, N-(2-amino-5-(thiophen-2-yl)phenyl)-2-oxo-1,2,3,4-tetrahydroquinoline-6-carboxamide], for which the IC50 on Human HDAC1 is 2.5 nM; on Recombinant human HDAC6, > 10000 nM. The “brain penetration (in words)” value in data set [1] (IV 1 mg/kg) is on record as “no brain penetration”. This compound showed a Brain concentration in data set [1] (setting [2]) of 0 ng/mL. Further, the Plasma concentration in data set [1] (setting [2]) is 206 ng/mL and 0.57 μM and 270 ng/mL and 0.74 μM. In addition, the concentration at 1 h is 0.00 µM in data set [1] (IV 1 mg/kg, individual mice, 1 mg/kg, read-out: Brain concentration); 0 ng/mL and 0 nM in data set [1] (mouse, brain, iv, 1 mg/kg, average, read-out: Brain concentration); 0 ng/mL and 0 nM in data set [1] (mouse, brain, iv, 1 mg/kg, individual mice, read-out: Brain concentration); 267 ng/mL and 730 nM in data set [1] (mouse, plasma, iv, 1 mg/kg, average, read-out: Plasma concentration); 324 ng/mL and 890 nM in data set [1] (mouse, plasma, iv, 1 mg/kg, individual mice, read-out: Plasma concentration).
